# Where “and” joins values, the source holds several entries; their conditions need not be identical. Equal values may be shown once.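 Following 48 hours of exposure in 96-well plates, responses at five concentrations were used to interpolate endpoints linearly. Here, GI50 denotes the concentration required for 50% inhibition of growth. TGI marks complete inhibition of growth.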
# Tests used:
# Assay in all cases: NCI anticancer screen, dose series, 48 h
# SW-620 colon = test system: SW-620 colon
# SNB-75 CNS = test system: SNB-75 CNS
# OVCAR-4 ovarian = test system: OVCAR-4 ovarian
# 786-0 renal = test system: 786-0 renal
# MOLT-4 leukemia = test system: MOLT-4 leukemia
# HT29 colon = test system: HT29 colon
# UO-31 renal = test system: UO-31 renal
# K-562 leukemia = test system: K-562 leukemia
# SR leukemia = test system: SR leukemia
# MDA-MB-435 = test system: MDA-MB-435
SMILES,TGI (SW-620 colon),TGI (SNB-75 CNS),TGI (OVCAR-4 ovarian),TGI (786-0 renal),TGI (MOLT-4 leukemia),TGI (HT29 colon),TGI (UO-31 renal),TGI (K-562 leukemia),TGI (SR leukemia),GI50 (SW-620 colon),GI50 (SNB-75 CNS),GI50 (OVCAR-4 ovarian),GI50 (786-0 renal),GI50 (UO-31 renal),GI50 (MOLT-4 leukemia),GI50 (MDA-MB-435),TGI (MDA-MB-435),GI50 (HT29 colon),GI50 (K-562 leukemia),GI50 (SR leukemia)
COc1ccc2c(c1OCC(=O)O)C(=O)C(CCC(=O)O)CC2 (stereo not drawn),> 100 µM,> 100 µM,> 100 µM,> 100 µM,> 100 µM,> 100 µM,,,,,,,,,,,,,,
Cc1cc2c(=O)c3ccccc3[nH]c2c(C(N)=O)c1C,> 100 µM,> 100 µM,> 100 µM,> 100 µM,> 100 µM,> 100 µM,> 100 µM,> 100 µM,,,,,,,,,,,,
CCC(C)(C)c1ccc(OCCCCNC(=O)c2ccc3ccccc3c2O)c(C(C)(C)CC)c1,87 µM,> 100 µM,> 100 µM,93.5 µM,> 100 µM,> 100 µM,> 100 µM,> 100 µM,> 100 µM,,,,,,,,,,,
O=C1CCC2(c3ccc(Cl)cc3)Nc3cc(Cl)ccc3N12 (stereo not drawn),19.6 µM,27.7 µM,23.1 µM,21.8 µM,,25.2 µM,29.2 µM,14.1 µM,> 100 µM,,,,,,,,,,,
CC(C)(/C=C(\C#N)C(=O)N1CCC[C@@H](n2nc(-c3ccc(Oc4ccccc4)cc3F)c3c(N)ncnc32)C1)N1CCN(C2COC2)CC1,31.3 µM,20.7 µM,20.4 µM,18.9 µM,13.7 µM,23.6 µM,10.6 µM,> 100 µM,,12.4 µM,5.98 µM,5.69 µM,4.12 µM,2.82 µM,2.94 µM,4.81 µM,17.3 µM,4.69 µM,7.49 µM,
CCCCCCCCCCCCCCCC(=O)OCCOCCOCCOCc1ccccc1,> 100 µM,> 100 µM,> 100 µM,> 100 µM,,> 100 µM,,,,,,,,,,,,,,
COC1C(OC(=S)Nc2ccccc2)c2ccccc2N1C(C)=O (stereo not drawn),> 100 µM,> 100 µM,> 100 µM,> 100 µM,> 100 µM,> 100 µM,> 100 µM,> 100 µM,> 100 µM,,,,,,,,,,,
CC(C)(C)c1cc(C(P(=O)(O)O)P(=O)(O)O)cc(C(C)(C)C)c1O,> 100 µM,> 100 µM,> 100 µM,> 100 µM,> 100 µM,> 100 µM,> 100 µM,> 100 µM,,,,,,,,,,,,
CCOC(=O)N[C@H]1CCc2cc(OC)c(OC)c(OC)c2-c2ccc(SC)c(=O)cc21,> 100 µM,,> 100 µM,45.7 µM and > 100 µM,> 100 µM,,> 100 µM,> 100 µM,> 100 µM,,< 0.01 µM,0.0677 µM,,0.254 µM,,,,,,
CN1CCC(=O)/C(=C/c2ccccc2)C1,14.1 µM,20.8 µM,32.5 µM,25.2 µM,34.3 µM,11 µM,32.6 µM,> 28.9 µM,61.3 µM,,,,,,,,,,,
O=C1N=C2Sc3ccc4ccccc4c3N2C1=O,49.1 µM,40.7 µM,32.7 µM,36.1 µM,> 100 µM,96.7 µM,33.3 µM,> 100 µM,> 100 µM,,,,,,,,,,,
CC12CCC(=O)C[C@H]1CCC(OC=O)C2Br (stereo partly drawn),> 100 µM,> 100 µM,> 100 µM,> 100 µM,> 100 µM,> 100 µM,> 100 µM,> 100 µM,> 100 µM,,,,,,,,,,,
COC(=O)/C(C#N)=C1\N=NNN1c1ccc(OC)cc1,> 100 µM,> 100 µM,,> 100 µM,> 100 µM,> 100 µM,> 100 µM,> 100 µM,,,,,,,,,,,,
C/C(CC(=O)Nc1ccc(C)c(C)c1)=N\N(c1ccccc1)c1ccccc1,,> 100 µM,> 100 µM,> 100 µM,> 100 µM,> 100 µM,> 100 µM,68.9 µM,51.2 µM,,,,,,,,,,,
COCC(OC)C(CC=C(C#N)C#N)OC (stereo not drawn),> 100 µM,,> 100 µM,> 100 µM,> 100 µM,> 100 µM,> 100 µM,> 100 µM,> 100 µM,,,,,,,,,,,
CC1(C)COC(c2cccc3c2C(=O)c2cccc(Cl)c2-3)=N1,> 100 µM,> 100 µM,> 100 µM,> 100 µM,> 100 µM,> 100 µM,> 100 µM,> 100 µM,,,,,,,,,,,,
COC(=O)/C(=C/c1ccc(OC)cc1)C(C(=O)O)=C1CCCC1,> 100 µM,> 100 µM,> 100 µM,> 100 µM,> 100 µM,> 100 µM,> 100 µM,> 100 µM,> 100 µM,,,,,,,,,,,

SMILES,TGI (SW-620 colon),TGI (SNB-75 CNS),TGI (OVCAR-4 ovarian),TGI (786-0 renal),TGI (MOLT-4 leukemia),TGI (HT29 colon),TGI (UO-31 renal),TGI (K-562 leukemia),TGI (SR leukemia),GI50 (SW-620 colon),GI50 (SNB-75 CNS),GI50 (OVCAR-4 ovarian),GI50 (786-0 renal),GI50 (UO-31 renal),GI50 (MOLT-4 leukemia),GI50 (MDA-MB-435),TGI (MDA-MB-435),GI50 (HT29 colon),GI50 (K-562 leukemia),GI50 (SR leukemia)
COC(=O)C1CCCC2(C1)OCCO2 (stereo not drawn),> 100 µM,> 100 µM,> 100 µM,> 100 µM,> 100 µM,> 100 µM,> 100 µM,> 100 µM,> 100 µM,,,,,,,,,,,
CCOC(=O)c1ccc(/C(C)=N/NC(N)=S)cc1,> 100 µM,> 100 µM,> 100 µM,> 100 µM,> 100 µM,,,> 100 µM,,,,,,,,,,,,
COC(=O)/C(=N\NC(N)=S)C(C(=O)OC)C(=O)C(=O)Nc1ccc(C)cc1 (stereo not drawn),> 100 µM,> 100 µM,> 100 µM,> 100 µM,> 100 µM,> 100 µM,> 100 µM,> 100 µM,> 100 µM,,,,,,,,,,,
Cc1ccc2nc(/C(=C/c3ccc(/C=C(\NC(=O)c4ccccc4)c4nc5ccc(C)cc5[nH]4)c(C)c3)NC(=O)c3ccccc3)[nH]c2c1,> 100 µM,> 100 µM,,60.4 µM,26.7 µM,> 100 µM,30.8 µM,45.4 µM,> 100 µM,,,,,,,,,,,
CC(C)C1=Cc2ccc3c(c2C(=O)C1=O)CCCC3(C)C,10.2 µM,29.3 µM,3.48 µM,10.5 µM,,46.2 µM,13.2 µM,> 100 µM,6.48 µM,,,,,,,,,,,
CN(C)C(=S)/N=c1\sn(C)/c(=N\C(=S)N(C)C)n1C,> 100 µM,> 100 µM,> 100 µM,> 100 µM,> 100 µM,> 100 µM,> 100 µM,> 100 µM,> 100 µM,,,,,,,,,,,
O=C(CC1C(=O)Nc2ccccc2S1=O)Nc1cc(Cl)ccc1Cl (stereo not drawn),> 100 µM,> 100 µM,,> 100 µM,> 100 µM,> 100 µM,> 100 µM,> 100 µM,> 100 µM,,,,,,,,,,,
C#CC1/C(=C\C(=O)OC)CCCC1O (stereo not drawn),> 100 µM,> 100 µM,> 100 µM,> 100 µM,> 100 µM,> 100 µM,> 100 µM,> 100 µM,> 100 µM,,,,,,,,,,,
O=C(/C(=C/c1ccc(Cl)cc1)c1ccccc1)c1ccccc1,31.6 µM,69.4 µM,66.9 µM,56.4 µM,47 µM,38.4 µM,> 100 µM,> 100 µM,45.3 µM,,,,,,,,,,,
COc1c(O)c2c(=O)cc3c4c5c(cc(=O)c6c(O)c(OC)c(CC(C)O)c(c(c1CC(C)O)c24)c65)OCO3 (stereo not drawn),8.65 µM,7.56 µM,2.74 µM,11.1 µM,4.44 µM,8.58 µM,5.45 µM,43.3 µM,9.41 µM,,,,,,,,,,,
Cc1ccc(C)c(NC(=O)c2cccc([N+](=O)[O-])c2O)c1,> 100 µM,63.8 µM,80.8 µM,> 100 µM,> 100 µM,> 100 µM,51.9 µM,> 100 µM,,,,,,,,,,,,
O=[N+]([O-])c1ccc2occ3c2c1CCC3,> 100 µM,> 100 µM,> 100 µM,> 100 µM,> 100 µM,> 100 µM,> 100 µM,> 100 µM,> 100 µM,,,,,,,,,,,
N#CC(C(=O)/C(=N\NC(N)=O)C(C#N)c1ccc(Cl)cc1)c1ccc(Cl)cc1 (stereo not drawn),> 100 µM,,> 100 µM,> 100 µM,> 100 µM,> 100 µM,> 100 µM,> 100 µM,,,,,,,,,,,,
O=C(Nc1cccc(Cl)c1)C(=O)C(C(=O)c1ccc2ccccc2c1)C1OC(=O)c2ccccc21 (stereo not drawn),80.9 µM,,33 µM,22.9 µM,23.6 µM,84.5 µM,29.9 µM,70.2 µM,,,,,,,,,,,,
Nc1ncn([C@@H]2O[C@H](CO)[C@@H](O)[C@H]2O)c(=O)n1,> 100 µM,6.2 µM,,13.8 µM,32.1 µM,,9.97 µM,> 100 µM,> 100 µM,1.71 µM,1.63 µM,,0.687 µM,1.1 µM,3.41 µM,,,,0.572 µM,3.5 µM
COc1cnc2c(c1)C(=O)c1c-2n(CCCNC2=NCCS2)c(=O)c2cc([N+](=O)[O-])ccc12,1.84 µM,1.81 µM,2.58 µM,0.0925 µM,,,1.19 µM,,,0.0139 µM,0.0329 µM,0.482 µM,0.0235 µM,< 0.01 µM,,0.478 µM,2.29 µM,,,
Cc1ccccc1C(=O)c1cc(O)ccc1O,> 100 µM,> 100 µM,> 100 µM,> 100 µM,> 100 µM,> 100 µM,> 100 µM,> 100 µM,> 100 µM,,,,,,,,,,,
